Where two headings read alike, the source gives them in different places.
Tests used:
APE1 [1] = target: T1, APE1 (Homo sapiens, UniProt P27695); test: Fluorogenic kinetic qHTS APE1 incision assay (primary screen and retest of cherrypicked samples); type: biochemical;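 also: purified APE1 cleaving a fluorophore/dark-quencher labelled 17-mer duplex DNA bearing a tetrahydrofuran AP site, fluorescence rise followed kinetically over the first 2 min, inhibition normalized to controls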
T1 construct: made in house

APE1 [2] = target: T1, APE1; test: Gel-based APE1 incision assay with fluorescence (TAMRA) detection; type: biochemical
Procedure: To test the compounds’ inhibitory activity after the primary screen, two assays designed to monitor the cleavage of substrate to product through electrophoretic separation were utilized. The radiotracer incision assay, utilizing a ^32P-labeled substrate, was performed essentially as described [21], [31], [32]. Incision reactions utilizing ^32P-labeled substrate were carried out for 5 min at 37°C. After the addition of an equal volume of stop buffer (0.05% bromophenol blue and xylene cyanol, 20 mM EDTA, 95% formamide), the substrate and product were separated on a standard polyacrylamide denaturing gel and quantified by PhosphorImager analysis [32]. […] APE1 cleavage of the substrate results in a 18-mer TAMRA-labeled fragment which was separated by a non-denaturing polyacrylamide gel electrophoresis and quantitated in a Gel Doc XR imaging system, BioRad (Hercules, CA). The advantage of this assay is that it can be used in a relatively high throughput mode with the inhibitors tested at a range of concentrations (0.17 µM to 125 µM was used here). APE1 (0.15 nM) was added to a reaction mixture of 20 µL containing assay buffer (40 mM HEPES pH 7.5, 50 mM NaCl, 1 mM MgCl2 and 2 mM DTT), and labeled ds DNA substrate (final 75 nM). The mixture was incubated at RT for 15 min, and the reaction was stopped by the addition 20 µL of 2X dye stop solution (10% glycerol, 20 mM EDTA and bromophenol blue). Then 10 µL of the mixture was resolved on 20% polyacrylamide gel in 1X Tris-borate EDTA running buffer at 250 V for 40 min.
To eliminate false positive hits, all 595 confirmed molecules were tested for their ability to inhibit APE1 incision activity using biochemical assays that involve electrophoretic separation of the substrate and cleavage product.

[3] = target: double-stranded 17-mer DNA fragment; test: ThO (Thiazole Orange) DNA displacement assay; type: binding; conditions: read-out: ThO-DNA binding IC50;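 also: miniaturized displacement of the intercalating dye from unlabeled duplex DNA, used to flag nonspecific DNA binders, chiefly intercalators, groove binders may be missed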
E. coli Endo IV = target: T2, E. coli Endo IV (Escherichia coli, UniProt P0A6C1); test: E. coli Endo IV profiling counterscreen; type: biochemical;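 also: selectivity counterscreen of candidate APE1 inhibitors against the bacterial endonuclease Endo IV, run in the same assay format as the primary APE1 high-throughput screen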
T2 construct: made in house
Excerpt: In order to screen out nonselective compounds, such as non-specific DNA binders and inhibitors of related enzymes, we used a miniaturized ThO DNA displacement assay and a counterscreen against the bacterial endonuclease E. coli Endo IV, respectively, following the previously published protocols [21].
To probe the selectivity of the candidate APE1 inhibitors, we tested them against E. coli EndoIV [36], employing the same assay as used in the HTS.

HeLa cells [4] = test: MMS potentiation assay (CellTiter Glo viability); type: cell-based, human; set-up: key: N.A., no activity observed; P, positive; I, inconclusive; N.T., not tested; conditions: for MMS Assay: potentiation of the genotoxic effect of methylmethane sulfonate
Procedure: HeLa cells were plated at 6000 cells/well in DMEM culture medium containing 10% FBS into white solid bottom 384-well cell culture plates. The plates were incubated at 37°C overnight for cell attachment, followed by media replacement. The fresh medium contained serial dilutions of compounds of interest in the presence (0.4 mM final) or absence of MMS. The plates were incubated for 24 h at 37°C. Cell viability was determined by luminescence detection after an addition of 15 µL of CellTiter Glo reagent (Promega, Madison, WI). Percent viability was calculated for each concentration of compound tested in duplicate by relating the corresponding luminescence to that of a negative DMSO vehicle control. MMS potentiation trends were defined as follows: negative (-), if cell viability in the compound-plus-MMS treatment was the same as that of the DMSO-plus-MMS control (overlapping dose-response curves); inconclusive (I), if the shift in the cell viability dose-response upon MMS inclusion relative to compound-alone was less than 30%; and positive (P), if the difference between the compound-plus-MMS and compound-alone curves was at least 30%, and maintained within at least a two-fold compound concentration span.
To examine the biological prospects of the top compounds, we tested their ability to inhibit APE1 DNA repair activity by assessing enhancement of MMS toxicity in mammalian cells. MMS creates methylated-base damage to genomic DNA, which, when excised by an alkylpurine DNA glycosylase, results in a high number of cytotoxic AP sites. We compared the viability of HeLa cells exposed to a dilution series of inhibitor alone to a combination of a fixed MMS concentration with the same dilution series of inhibitor by using a standard CellTiter Glo luminescence assay. This technique measures the number of viable cells in culture based on quantitation of the ATP present, which signals the presence of metabolically active cells. The assay was further optimized for 384-well plates, allowing a high-throughput testing of multiple hits at multiple concentrations, a scope of investigation previously impossible due to the very low throughput of the traditionally applied colony formation assay.
From the 223 compounds found positive in the gel-based APE1 assays, exclusion of the most promiscuous hits, that is, those that were both DNA binders and EndoIV-inhibitory, yielded a set of 170 compounds (Figure 3). This shortened group of hits was tested in the cell-based potentiation assay for their ability to dose-dependently enhance sensitivity of HeLa cells to the alkylating agent MMS.

HeLa cells [5] = test: AP site measurement in genomic DNA; type: cell-based, human; conditions: for AP site levels, combination treatment versus MMS-alone / AP sites upon treatment with the inhibitor alone: 24 h; for AP site levels, combination treatment versus MMS-alone: initial test (Figure 8); for AP sites upon treatment with the inhibitor alone: inhibitor alone vs vehicle
Procedure: HeLa cells at 80% confluency (6×10^5 cells) were subjected to the following treatments in a 6-well plate for 24 hours at 37°C: 1) DMSO alone, 2) 275 µM MMS, 3) APE1 inhibitors dissolved in DMSO (5–20 µM final compound concentration), and 4) the inhibitors as in treatment 3 in combination with 275 µM MMS. Cells were then harvested and processed using a Qiagen Genomic DNA isolation kit (Germantown, MD). After DNA quantitation, AP sites were measured using the DNA Damage Quantification kit from Dojindo Molecular Technologies (Rockville, MD).
As stated above, the application of the genotoxic agent MMS results in an increase in the level of AP sites within the genome. An effective APE1-targeted inhibitor applied under the conditions of increased genotoxic stress is expected to interfere with the repair of AP sites, while ideally having no effect on the AP site levels when applied as a single agent. Thus, the net effect of treating cells with a combination of MMS and inhibitor would be an increase in the number of AP site lesions. To determine the effect on AP site accumulation caused by treatment with MMS in combination with an APE1 inhibitor, as compared to treatment with MMS or inhibitor alone, we measured AP site levels in the chromosomal DNA from HeLa cells using an aldehyde-reactive probe-based colorimetric assay. The concentrations of MMS and inhibitor (275 µM for MMS and between […] for the inhibitor, respectively) were selected to fall below the onset of cytotoxicity for each agent based on the analysis of the MMS potentiation data shown in Figure 5.

APE1 [6] = target: T1, APE1; test: Fluorescence polarization (FP) displacement assay of APE1 binding to AP-DNA probe;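 also: TAMRA 5′-labeled duplex DNA with THF abasic site (5 nM) and APE1 (20 nM), Mg2+-free buffer, 15 min at room temperature, inhibition seen as lowered polarization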
[7] = tested on: histone acetyltransferase (HAT) p300; set-up: method as in PMID 20534345, PMID 21764752; conditions: cited from earlier work
APE1 [8] = target: T1, APE1; test: Gel-based radiotracer (32P) APE1 incision assay; type: biochemical; set-up: concentration or dose not given beside the values; conditions: percent incision shown; entries 1-112;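 also: APE1 incision reactions ran 5 min at 37 °C, with cleaved product and intact substrate resolved electrophoretically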
tubulin = tested on: tubulin; set-up: method as in PMID 20657644; conditions: cited from earlier work
[9] = tested on: human immunodeficiency virus integrase; set-up: method as in PMID 9865384; conditions: cited from earlier work
[10] = initial quantitative high-throughput screen, read-out: APE1 qHTS IC50
[11] = estimated IC50, fluorophore detection, entries 113-223, read-out: F-PAGE Assay IC50
[12] = retest of cherrypicked sample, read-out: APE1 Retest IC50

T1 sequence (P27695 whole entry): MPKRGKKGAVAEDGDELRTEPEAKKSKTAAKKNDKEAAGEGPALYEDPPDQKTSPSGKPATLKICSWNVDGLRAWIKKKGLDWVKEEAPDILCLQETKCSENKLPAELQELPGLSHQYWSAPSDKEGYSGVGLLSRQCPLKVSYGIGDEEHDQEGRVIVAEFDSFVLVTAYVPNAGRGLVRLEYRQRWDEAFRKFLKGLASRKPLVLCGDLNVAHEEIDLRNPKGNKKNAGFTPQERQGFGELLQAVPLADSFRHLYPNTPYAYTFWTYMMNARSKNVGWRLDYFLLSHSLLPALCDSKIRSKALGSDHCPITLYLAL

With CC1CCN(C2=NN3C(=N)/C(=C\c4ccc(OC(=O)c5ccco5)cc4)C(=O)N=C3S2)CC1 [MLS001076862] the IC50 (APE1 [1]; [10]) was 10.6 µM, the IC50 (APE1 [2]; [11]) was 4 µM and the IC50 [3] was > 57 µM. The IC50 (E. coli Endo IV; read-out: EndoIV IC50) was > 57 µM, the “MMS Assay” value (HeLa cells [4]) was “P” and the “AP site levels, combination treatment versus MMS-alone” value (HeLa cells [5]; 275 µM MMS plus inhibitor) was “no statistical significance”. The “AP sites upon treatment with the inhibitor alone” value (HeLa cells [5]) was “noticeable increase in AP sites”.

CCOC(=O)c1cc(-c2ccc(/C=C3/C(=O)N(c4ccc(C(=O)O)cc4)N=C3C)o2)ccc1Cl [MLS001196838] gave an IC50 (APE1 [1]; [10]) of 8.4 µM, an IC50 (APE1 [1]; [12]) of 25.7 µM and an IC50 (APE1 [2]; [11]) of 7.9 µM. The IC50 (APE1 [6]; read-out: FP IC50) was > 57 µM, the IC50 [3] was 16.2 µM and the IC50 (E. coli Endo IV; read-out: EndoIV IC50) was > 57 µM. The “MMS Assay” value (HeLa cells [4]) was “P”, the “AP sites upon treatment with the inhibitor alone” value (HeLa cells [5]) was “noticeable increase in AP sites” and the “Inhibition of HAT p300” value [7] was “potent and selective inhibitor”.

Cc1c(C(=O)OCC2CCCO2)[nH]c2c1C(=O)CC(c1ccco1)C2 (stereo not shown) [MLS000090966] showed an IC50 (APE1 [1]; initial qHTS, 7-point titration, read-out: qHTS, IC50 obtained in the initial quantitative high-throughput screen) of 7.07 µM, an IC50 (APE1 [1]; [10]) of 7.1 µM and an IC50 (APE1 [1]; [12]) of 4.5 µM. For the same compound, the “Radiotracer Assay (%Activity)” value (APE1 [8]) was 37%, the IC50 (APE1 [6]; read-out: FP IC50) was 15.8 µM and the IC50 [3] was > 57 µM. For the same compound, the IC50 (E. coli Endo IV; read-out: EndoIV IC50) was > 57 µM, the “MMS Assay” value (HeLa cells [4]) was “P” and the “AP site levels, combination treatment versus MMS-alone” value (HeLa cells [5]; 275 µM MMS plus inhibitor) was “obscured by large standard deviations”. For the same compound, the “Inhibition of tubulin assembly” value (tubulin) was “effective inhibitor”.

For O=C1NC(=O)N(Cc2ccco2)C(=O)C1=CC=Cc1ccco1 [MLS000587064], the IC50 (APE1 [1]; APE1 Retest IC50, retest of cherrypicked sample) was 5 µM, the IC50 (APE1 [1]; APE1 qHTS IC50, initial quantitative high-throughput screen) was 2.8 µM and the “Radiotracer Assay (%Activity)” value (APE1 [8]) was 14%. The IC50 (APE1 [6]) was > 57 µM, the IC50 [3] was > 57 µM and the IC50 (E. coli Endo IV) was > 57 µM. The “MMS Assay” value (HeLa cells [4]) was “P”, the “AP site levels, combination versus MMS-alone, repeat testing” value (HeLa cells [5]; 275 µM MMS plus inhibitor, repeat test (Figure S1)) was “support the initially-observed enhancements” and the “AP site levels, combination treatment versus MMS-alone” value (HeLa cells [5]; 275 µM MMS plus inhibitor) was “obscured by large standard deviations”.

COc1ccc2nc3cc(Cl)ccc3c(Nc3cc(CN4CCCC4)c(O)c(CN4CCCC4)c3)c2n1 [MLS001306480, pyronaridine, reference compound] showed an IC50 (APE1 [1]; [10]) of 15 µM, an IC50 (APE1 [1]; [12]) of 6.5 µM and an IC50 (APE1 [2]; entries 113-223: fluorophore detection, estimated IC50, read-out: Gel-based electrophoretic separation assay with fluorophore detection, estimated IC50 (column headed Radiotracer Assay (%Activity))) of 12.6 µM. The IC50 (APE1 [6]; read-out: FP IC50) was 32.4 µM, the IC50 [3] was > 57 µM and the IC50 (E. coli Endo IV) was 28.9 µM. The “MMS Assay: potentiation of the genotoxic effect of methylmethane sulfonate” value (HeLa cells [4]) was “P” and the “AP sites upon treatment with the inhibitor alone” value (HeLa cells [5]) was “noticeable increase in AP sites”.

In the case of O=c1oc2c(cc1O)oc(=O)c1cc(O)c(O)c(O)c12 [MLS000737267, galloflavin], the IC50 (APE1 [1]; [10]) is reported as 0.4 µM, the IC50 (APE1 [1]; [12]) is reported as 0.13 µM and the “Radiotracer Assay (%Activity)” value (APE1 [8]) is reported as 46%. For the same compound, the IC50 (APE1 [6]; read-out: FP IC50) was > 57 µM, the IC50 [3] was 6.3 µM and the IC50 (E. coli Endo IV; read-out: EndoIV IC50) was > 57 µM. For the same compound, the “MMS Assay” value (HeLa cells [4]) was “P”, the “AP site levels, combination treatment versus MMS-alone” value (HeLa cells [5]; 275 µM MMS plus inhibitor) was “no statistical significance” and the “HIV integrase IC50” value [9] was “low-micromolar”.
